Source: patent publication US8222231B2, “Derivatives of partially desulphated glycosaminoglycans endowed with antiangiogenic activity and devoid of anticoagulating effect” (Sigma-Tau Industrie Farmaceutiche Riunite SpA, priority 2000, dated 2012)

Columns and labels:
[1] = tested on: CAM; settings: in the presence of corticosteroids; compared with heparin; cited from earlier work
[2] = molecular target: T1, FGFR/FGF2/HSPG ternary complex (Homo sapiens, UniProt P09038); assay: Inhibition of FGF2-mediated intercellular adhesion of CHO-K1 and CHO-745flg cells; type: cell-based, Chinese hamster
T1 construct: expressed in transfected cells; host or cells: CHO 745/flg (HSPG-deficient CHO mutants transfected with FGFR-1); fixed CHO-K1 monolayer supplies HSPGs; FGF-2 added to the medium
Source text: To this end an in-vitro model was designed capable of assessing the interference of the various different heparin derivatives with bFGF binding to its own receptor.
These latter cells were stably transfected with cDNA for green fluorescent protein and for this reason could be observed under the fluorescence microscope with a combination of filters for the detection of green emission. In brief, the technique is based on the possibility that the two types of cells may interact (form stable bonds) only if FGF is added to the two cell types. In fact, in this case, the heparan sulphates of the CHO-745flg cells will bind to FGF, which in turn will bind to the CHO-K1 cells, establishing a bridge. The binding that occurs is detectable as a result of the green fluorescence emitted by the CHO-745flg cells.
CHO-K1 cells were seeded at a density of 90,000 cells/cm2 in 24-well plates. After 24 hours the cells were fixed in 3% glutaraldehyde in PBS for 2 hours at 4° C. and washed with 0.1 M glycine/PBS. […] After 2 hours' incubation at 37° C., the adhering cells were counted under the inverted microscope. The results were expressed as percentage of the number of cells adhering compared to those measured in the absence of the test compounds. […]

[3] = tested on: chick embryo chorioallantoic membrane; assay: Angiostatic activity on chick embryo chorioallantoic membrane (CAM) model; settings: in vivo
Experimental: For the study of angiogenesis the model used was the chick embryo chorioallantoic membrane model (Ribatti e al. Int. J. Dev. Biol., 40, 1189 (1996)).
300 embryonated hens' eggs were incubated at 37° C. in constant humidity conditions. On the 3rd day of incubation, after aspirating 2-3 ml of albumen from the acute pole of the egg so as to detach the CAM from the shell, a window was cut with scissors in the shell. The vessels underlying the CAM were thus exposed. The window was closed with a transparent glass panel and the eggs were put back into the incubator. […] The experiments were discontinued on the 12th day of incubation, when an overall assessment of the angiogenic activity of the molecules was carried out, expressed as percentage inhibition in relation to the number of experiments initiated and completed (Table 9). In addition, for compound ST1514, assayed at the concentration of 100 μg/embryo, a macroscopic quantitative evaluation of the angiostatic activity was also carried out according to the technique proposed by Brooks et al. (Science, 264, 569, (1994)), counting the number of vessels surrounding the sponge. […]

[4] = Evaluation of heparin toxicity in Balb/c mice; type: in vivo; settings: 50 mg/kg and 25 mg/kg subcutaneously, q2dx5
Experimental: 20 6-week-old female Balb/c mice weighing 20 g (Harlan), divided into groups by casual randomisation, were treated with heparin sodium, as a reference, and with the compound according to the present invention called STI514. The treatment schedule was of the q2dx5 type, i.e. 5 total administrations at intervals of 2 days, administering 200 μl/mouse of 50 mg/kg/10 ml and 25 mg/kg/10 ml solutions subcutaneously.
Heparin sodium: the solution is prepared by solubilizing 160 mg of powder in 4 ml of PBS 1× pH 7.4 free of Ca^++-and Mg^++-ions; it is subdivided into aliquots of 243 μl and stored at −20° C. At the time of treatment, the solution is diluted in Ca^++-and Mg^++-free PBS (Dulbecco, modified formula) 1×, pH 7.4 so as to have the substance at final concentrations of 50 mg/kg/10 ml and 25 mg/kg/10 ml.
ST1514: the solution is prepared by solubilizing 160 mg of powder in 4 ml of Ca^++-and Mg^++-free PBS 1×, pH 7.4; it is subdivided into aliquots of 243 μl and stored at −20° C. […]
Full blood count: the appliance (Cell Analyzer 580 A, DELCON) is used according to the standard procedure described in the operating manual. […] This solution is used for the WBC reading. Solution B, on the other hand, is used for the RBC and platelet (PLT) readings. Each sample is read in duplicate.
The data obtained will be analyzed using ANOVA.

T1 sequence (P09038 143-288, one chain of several): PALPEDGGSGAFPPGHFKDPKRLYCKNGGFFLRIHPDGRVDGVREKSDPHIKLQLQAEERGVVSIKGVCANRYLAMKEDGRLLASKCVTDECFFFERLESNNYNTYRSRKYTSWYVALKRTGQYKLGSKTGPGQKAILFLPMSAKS

Substance: 2-O-desulfated heparin
- antiangiogenic activity as assessed by means of the CAM test [1]: partly maintained the antiangiogenic activity of heparin

Substance: Heparin
- Cell-Cell Adh. (ID50, ng/mL), inhibition of FGF2-mediated cell-cell adhesion [2]: 100 ng/mL
- Angiostatic activity on CAM model (stated in words) [3]: no activity

Substance: heparin sodium
- liver characteristics at autopsy [4]: livers with abnormal characteristics
